# Data taken from patent publication US5484803A, “Transcutaneous in vivo activation of photosensitive agents in blood” (priority 1995, dated 1996).
# Assays:
# skin = experiment: Skin changes and general behavior after treatment (Example 5 and preceding examples); type: in vivo, mice; details: maximum observation period 2 weeks
# [1] = BPD concentration in plasma of mice injected with L1210 cells; type: in vivo, Balb/c mice; details: for BPD Concentration in Plasma: Balb/c mice injected with L1210 cells; for BPD Concentration in Plasma, % of dark control: L1210
# Procedure: (§1) Determination of BPD Concentration in Plasma: Plasma samples were obtained by centrifugation of blood collected from mice and stored frozen at -20° C. until assessment. The concentration of BPD in the samples was determined by fluorometry using a Jasco Model FP-770 (Japan Spectroscopic Co.) spectrofluorometer and a microcuvette (Far UV Quartz Cell, Starna Cells Inc.). Excitation and emission wavelengths were 439 and 699 nm, respectively. Plasma samples were diluted 20-fold with PBS containing 1% Triton® X-100 immediately before fluorescence was determined. BPD standards were prepared in 5% mouse plasma in PBS with 1% Triton® X-100. Under these conditions the relationship between the concentration of BPD and units of fluorescence was linear (correlation coefficient >0.99) for concentrations between 0.1 ng/ml and 1 μg/ml. The limit of detection was below 0.1 ng/ml sample which corresponded to 2 ng/ml plasma. […] The 699 nm fluorescence peak of BPD was virtually free from any interference.
# (§2) Male mature DBA/2 and Balb/c mice were injected intravenously with P815 and L1210 cells, respectively, preincubated for 1 hour with BPD (liposomal) at 100 ng/ml. Immediately before animal injection, an additional 2 μg of BPD was added to the syringes containing cells. […] One group of mice (shaved and depilated) was exposed immediately to red light (600-900 nm) in the light box for 1.5 hours (162 J/cm^2); the other group was kept in the dark as the control.
# (§3) Immediately after exposure to light, blood samples were obtained by a heart puncture under halothane anesthesia. The concentration of BPD in plasma of light-exposed and control mice was determined by fluorescence. The number of clonogenic tumor cells in mouse blood was determined by culturing blood samples in culture medium supplemented with 10% bovine serum, using a limiting dilution assay protocol.
# [2] = Pharmacokinetic studies: BPD concentration in plasma; type: in vivo, Balb/c mice; details: for Plasma Conc.: liposomal BPD
# Procedure: as §1
# In order to determine the level of BPD in plasma during the light treatment, the following experiment was carried out. Fourteen Balb/c mice (22±1 g of weight) were injected with liposomal BPD at 20 μg/mouse (0.9 mg/kg) in 200 μl PBS per mouse. Blood samples were obtained by heart puncture at various time intervals between 15 min and 2 hours post-injection. Exposure to light started at 15 min post-injection for some mice. The BPD concentration in plasma was determined as described above.
# [3] = in vivo; cited from earlier work
# [4] = system: tumor tissue, including leukemic cells; details: cited from earlier work
# [5] = system: free viruses and virally infected cells; details: with red light (400-900 nm); spiked blood products and whole blood from viremic cats; cited from earlier work
# virus-infected T cells = details: after exposure of BPD-treated, virus-infected T cells to light; cited from earlier work
# L1210 cells = experiment: Surviving clonogenic L1210 cells in mouse blood; type: in vivo, Balb/c mice; details: for Surviving cells in blood: average of 3 mice/group
# Procedure: as §2, §3
substance,measurement,setting,value
benzoprophyrin derivative monoacid ring A [BPD],skin photosensitivity and change in behavior,skin,neither skin photosensitivity nor change in the behavior of animals were observed
same,Percent photodegraded,"[1]; Balb/c, L1210, 162 J/cm^2",59%
same,BPD Concentration in Plasma,[1]; Dark control,126.45 ng/mL
same,"BPD Concentration in Plasma, % of dark control",[1]; Dark control,100%
same,BPD Concentration in Plasma,[1]; Light exposed (162 J/cm^2),52.23 ng/mL
same,"BPD Concentration in Plasma, % of dark control",[1]; Light exposed (162 J/cm^2),41%
same,plasma level of BPD at the beginning of exposure to light,"[2]; 1 hour post-injection, as in Example 1, 0.9 mg/kg",about 4 μg/ml
same,Plasma Conc.,"[2]; 0.83 mg/kg, 20 min post injection",4680 ng/mL
same,Plasma Conc.,"[2]; 0.83 mg/kg, 2 h 5 min post injection (text: 2 hours), 125 min",2440 ng/mL
same,Plasma Conc.,"[2]; 0.87 mg/kg, 15 min post injection",6320 ng/mL
same,Plasma Conc.,"[2]; 0.87 mg/kg, 1 h 38 min post injection, 98 min",1800 ng/mL
same,Plasma Conc.,"[2]; 0.87 mg/kg, 1 h 42 min post injection, 102 min",3220 ng/mL
same,Plasma Conc.,"[2]; 0.91 mg/kg, 1 h 24 min post injection, 84 min",2920 ng/mL
same,Plasma Conc.,"[2]; 0.91 mg/kg, 1 h 32 min post injection, 92 min",2980 ng/mL
same,Plasma Conc.,"[2]; 0.95 mg/kg, 1 h 23 min post injection, 83 min",3260 ng/mL
same,time of accumulation of BPD in the skin,[3],up to 5 hours
same,affinity for tumor tissue versus normal cells,[4],"higher affinity for tumor tissue, including leukemic cells, than for normal non-malignant cells"
same,elimination of free viruses and virally infected cells,[5],effective in eliminating both free viruses and virally infected cells
same,effect on virus-infected T cell membrane,virus-infected T cells,"holes developed in the T cell membrane, which increased in size until the membrane completely decomposed"
same,Surviving cells in blood,L1210 cells; Dark control,234 L1210 cells/2 ml blood/mouse
same,Surviving cells in blood,L1210 cells; Light exposed (162 J/cm^2),21 L1210 cells/2 ml blood/mouse
same,destruction of BPD pre-loaded tumor cells,L1210 cells; whole body exposure to red light (L1210 and P815 examples),a large number of BPD pre-loaded tumor cells were destroyed
